The text below walks through data of EP0442958B1, “PHARMACEUTICAL COMPOSITION FOR OPHTHALMIC USE COMPRISING A WATER SOLUBLE ACID ADDITION SALT OF IBOPAMINE” (ZAMBON GROUP S.p.A., priority 1988, dated 1990).

SMILES strings stand for the structures. Structures can show the parent of a compound that is named as a salt.

Series [1] in a line: Stability of aqueous ibopamine solutions (ibopamine titer). The format is physicochemical. The conditions noted are these: aqueous solutions buffered at pH 4.5, room temperature.
For series [2] the following is noted: well known, WO 86/03970; cited from earlier work.

`CNCCc1ccc(OC(=O)C(C)C)c(OC(=O)C(C)C)c1` [ibopamine hydrochloride, Ibopamine hydrochloride]: the “period for which ibopamine titer remains substantially unchanged” value in series [1] lay in the range of 20 to 25 days. With `CNCCc1ccc(OC(=O)C(C)C)c(OC(=O)C(C)C)c1` [ibopamine, epinine 3,4-0-diisobutyrate], the mydriatic activity entry in series [2] is “endowed with mydriatic activity”.
